Results reported in the OPERA property sets (Mansouri et al. 2018).
In brackets after ≈: the same amount, converted by molar mass.

Row | solubility (25 °C) [µM] | solubility (20 °C) [µM] | SMILES
1 | 0.0224 (≈ 0.00731 µg/mL) |  | Clc1ccc(-c2c(Cl)ccc(Cl)c2Cl)cc1Cl
2 | 25.1 (≈ 5.91 µg/mL) |  | CCCCCCCOC(=O)c1ccc(N)cc1
3 | 0.148 (≈ 0.0432 µg/mL) |  | Clc1ccccc1-c1ccc(Cl)c(Cl)c1Cl
4 |  | 36500 (≈ 3000 µg/mL) | Cc1ccco1
5 | 790 (≈ 94.9 µg/mL) |  | CCc1ccc(C)cc1
6 | 0.0151 (≈ 0.00544 µg/mL) |  | Clc1cc(Cl)c(Cl)c(-c2c(Cl)ccc(Cl)c2Cl)c1
7 | 28100 (≈ 3270 µg/mL) |  | CCCCCC(C)O (stereo not given)
8 | 15500 (≈ 2340 µg/mL) |  | O=Cc1ccc([N+](=O)[O-])cc1

The remaining lines, values behind:

Row | SMILES | solubility (25 °C) [µM] | solubility (20 °C) [µM]
9 | Fc1cccc(F)c1 | 9990 (≈ 1140 µg/mL) | 
10 | Clc1ccc(Cl)c(-c2ccccc2)c1Cl | 0.323 (≈ 0.0833 µg/mL) | 
11 | CCCCOCCOCCCC |  | 11500 (≈ 2000 µg/mL)
12 | CCCOC(N)=O | 741000 (≈ 76400 µg/mL) | 
13 | CCCCCCN | 119000 (≈ 12000 µg/mL) | 
14 | Clc1ccccc1-c1c(Cl)cccc1Cl | 1.26 (≈ 0.324 µg/mL) | 
15 | CCCC[N+](=O)[O-] | 44600 (≈ 4600 µg/mL) | 
16 | CC(=O)Nc1ccccc1[N+](=O)[O-] | 12300 (≈ 2220 µg/mL) | 
17 | CCOCCOCC | 708000 (≈ 83700 µg/mL) | 
18 | Clc1ccc(-c2ccc(Cl)c(Cl)c2Cl)c(Cl)c1 | 0.024 (≈ 0.00783 µg/mL) | 
19 | Clc1cc(Cl)c(-c2c(Cl)ccc(Cl)c2Cl)cc1Cl | 0.0117 (≈ 0.00424 µg/mL) | 
20 | CCCCCCCCOC(=O)c1ccc(N)cc1 | 3.98 (≈ 0.993 µg/mL) | 
21 | Clc1ccc(-c2c(Cl)cccc2Cl)cc1 | 0.617 (≈ 0.159 µg/mL) | 
22 | CCCCCCOCCO |  | 67700 (≈ 9900 µg/mL)
23 | Clc1cccc(-c2ccccc2)c1Cl | 4.47 (≈ 0.997 µg/mL) | 
24 | Clc1cccc(-c2c(Cl)ccc(Cl)c2Cl)c1Cl | 0.166 (≈ 0.0542 µg/mL) | 
25 | CCCCOCCOCCOCCCC |  | 13700 (≈ 3000 µg/mL)
